Reference: the supplement of paper PMC10307832

Experiments:
Experiment in all cases: relative viability (nuclei count vs DMSO), 5 days (fraction); higher = more cells survive
[1] = compound: C1CC1C(=O)NC2=NNC3=C2C=CC(=C3)C4=CC(=CC=C4)C(=O)NC5CC5 [XMD13-2] + CC(C)C[C@H](NC(=O)[C@H](Cc1ccccc1)NC(=O)c1cnccn1)B(O)O [Bortezomib] (partner 0.002 µM)
Outline: (§1)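 After 5 days of treatment, lung cancer cells in 1536-well plates were fixed and stained in a single step (final 0.05% Triton X-100, 1% formaldehyde, 1 ug/ml Hoechst) and their nuclei counted on 4× images. Treatment had been applied by pin tool the day after seeding as one drug alone or as a fixed anchor-drug dose with five library-drug doses (not always all listed) in √10 steps. Relative viability is the nuclei count of treated wells divided by that of vehicle wells, and values are medians of duplicate plates.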

[2] = compound: Cc1nc(Nc2ncc(C(=O)Nc3c(C)cccc3Cl)s2)cc(N2CCN(CCO)CC2)n1 [Dasatinib] + CC(=O)Nc1cccc(-n2c(=O)n(C3CC3)c(=O)c3c(Nc4ccc(I)cc4F)n(C)c(=O)c(C)c32)c1 [Trametinib] (partner 0.02 µM)
Outline: as §1

[3] = compound: C1CC1C(=O)NC2=NNC3=C2C=CC(=C3)C4=CC(=CC=C4)C(=O)NC5CC5 [XMD13-2] + Cc1nc(Nc2ncc(C(=O)Nc3c(C)cccc3Cl)s2)cc(N2CCN(CCO)CC2)n1 [Dasatinib] (partner 0.075 µM)
Outline: as §1

[4] = compound: Cc1nc(Nc2ncc(C(=O)Nc3c(C)cccc3Cl)s2)cc(N2CCN(CCO)CC2)n1 [Dasatinib] + Nc1nc2[nH]cc(CCc3ccc(C(=O)N[C@@H](CCC(=O)O)C(=O)O)cc3)c2c(=O)[nH]1 [Pemetrexed] (partner 0.2 µM)
Outline: as §1

Cell Line	relative viability ([1]; first compound 0.05 µM)	relative viability ([1]; first compound 0.1581 µM)	relative viability ([1]; first compound 0.5 µM)	relative viability ([1]; first compound 1.581 µM)	relative viability ([1]; first compound 5 µM)	relative viability ([2]; first compound 0.005 µM)	relative viability ([2]; first compound 0.01581 µM)	relative viability ([2]; first compound 0.05 µM)	relative viability ([2]; first compound 0.1581 µM)	relative viability ([2]; first compound 0.5 µM)	relative viability ([3]; first compound 0.05 µM)	relative viability ([3]; first compound 0.1581 µM)	relative viability ([3]; first compound 0.5 µM)	relative viability ([3]; first compound 1.581 µM)	relative viability ([3]; first compound 5 µM)	relative viability ([4]; first compound 0.005 µM)	relative viability ([4]; first compound 0.01581 µM)	relative viability ([4]; first compound 0.05 µM)	relative viability ([4]; first compound 0.1581 µM)	relative viability ([4]; first compound 0.5 µM)
HCC-366	1.24	0.988	0.969	1.04	1.04	0.283	0.182	0.218	0.16	0.117	0.775	0.48	0.783	0.585	0.662	0.173	0.147	0.166	0.177	0.114
NCI-H2405	1.07	0.964	0.957	0.926	0.991	0.431	0.365	0.351	0.272	0.233	0.211	0.259	0.239	0.171	0.226	0.852	0.65	0.422	0.229	0.22
Calu-6	1	1.04	1.1	0.871	0.789	–	–	–	–	–	–	–	–	–	–	–	–	–	–	–
201T	1.12	1.12	1.16	1.15	1.18	0.695	0.64	0.708	0.575	0.44	0.686	0.533	0.578	0.555	0.563	0.404	0.332	0.31	0.292	0.268
CAL-12T	1.2	–	1.01	0.837	1.16	0.331	0.324	0.343	0.198	0.138	0.497	0.402	0.405	0.396	0.409	1.23	1.2	1.27	0.929	0.479
HCC-44	0.899	0.92	0.897	0.804	0.966	1.11	0.94	1.16	1.17	0.574	–	–	–	–	–	0.627	0.579	0.692	0.709	0.633
NCI-H358	–	–	–	–	–	0.151	0.116	0.105	0.0936	0.089	0.201	0.162	0.142	0.174	0.171	0.16	0.176	0.143	0.151	0.129
SW 900	–	–	–	–	–	0.783	0.474	0.405	0.393	0.188	0.616	0.537	0.601	0.578	0.652	0.47	0.348	0.43	0.186	0.203
NCI-H2087	0.917	1.25	1.08	0.782	0.856	0.291	0.2	0.178	0.124	0.101	0.997	0.826	0.938	0.87	0.796	0.719	0.617	0.67	0.649	0.471
